In patent US10610504B2, “Alpha-cell re-generation combined with conversion to beta cells” (INSERM (INSTITUT NATIONAL DE LA SANTÉ ET DE LA RECHERCHE …, priority 2014, dated 2020):

Columns and labels:
beta-like cells = details: upon GABA administration, as mentioned in WO14048788; cited from earlier work
[1] = test system: insulin+ cells (beta cells); assay: Immunohistochemical characterisation of pancreata, GABA and Glu001 combination study; assay type: in vivo, mice; details: 3-month old WT animals treated for a month, daily IP; vs saline
Description: To determine if the combination of GABA and Glu001 could increase beta-cell mass wild type mice were treated with 1) saline, 2) GABA (daily IP injections of 50 μM/40 g mouse), 3) Glu001 (daily IP injections of 4 mg/kg) and 4) GABA+Glu001.

NCCCC(=O)O [GABA, gamma-amino butyric acid]
beta-like cell number (beta-like cells): progressive increase
insulin+ cell count / beta cell mass [1]: expected increase
